Results from patent US9815796B2 (Merck Sharp & Dohme Corp., priority 2013, dated 2017).
Read-outs that look alike come from different tables or passages of the source.

How the values were obtained:
Rhesus PDE2A3 = Rhesus PDE2A3 (Macaca mulatta, UniProt B3VTJ2); assay: PDE2 fluorescence polarization (IMAP FP) inhibition assay, rhesus enzyme; assay type: biochemical, rhesus macaque
Outline: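 Rhesus PDE2A3 came from lysate of transiently transfected AD293 cells, diluted to give 20% substrate conversion. Substrate was 50 nM FAM-cAMP with 1 uM cGMP activator in Tris pH 7.2/MgCl2 buffer, run 60 min at room temperature over 10-point 3-fold dilutions in 1% DMSO. Read-out was IMAP fluorescence polarization (mP) after ≥1 h binding.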

human PDE2A1 = human PDE2A1 (Homo sapiens (Human), UniProt O00408); assay: IMAP FP PDE selectivity panel, human PDE2A1; assay type: biochemical
Sequence of human PDE2A1 (O00408 other isoform, or with tags, fused parts or gaps): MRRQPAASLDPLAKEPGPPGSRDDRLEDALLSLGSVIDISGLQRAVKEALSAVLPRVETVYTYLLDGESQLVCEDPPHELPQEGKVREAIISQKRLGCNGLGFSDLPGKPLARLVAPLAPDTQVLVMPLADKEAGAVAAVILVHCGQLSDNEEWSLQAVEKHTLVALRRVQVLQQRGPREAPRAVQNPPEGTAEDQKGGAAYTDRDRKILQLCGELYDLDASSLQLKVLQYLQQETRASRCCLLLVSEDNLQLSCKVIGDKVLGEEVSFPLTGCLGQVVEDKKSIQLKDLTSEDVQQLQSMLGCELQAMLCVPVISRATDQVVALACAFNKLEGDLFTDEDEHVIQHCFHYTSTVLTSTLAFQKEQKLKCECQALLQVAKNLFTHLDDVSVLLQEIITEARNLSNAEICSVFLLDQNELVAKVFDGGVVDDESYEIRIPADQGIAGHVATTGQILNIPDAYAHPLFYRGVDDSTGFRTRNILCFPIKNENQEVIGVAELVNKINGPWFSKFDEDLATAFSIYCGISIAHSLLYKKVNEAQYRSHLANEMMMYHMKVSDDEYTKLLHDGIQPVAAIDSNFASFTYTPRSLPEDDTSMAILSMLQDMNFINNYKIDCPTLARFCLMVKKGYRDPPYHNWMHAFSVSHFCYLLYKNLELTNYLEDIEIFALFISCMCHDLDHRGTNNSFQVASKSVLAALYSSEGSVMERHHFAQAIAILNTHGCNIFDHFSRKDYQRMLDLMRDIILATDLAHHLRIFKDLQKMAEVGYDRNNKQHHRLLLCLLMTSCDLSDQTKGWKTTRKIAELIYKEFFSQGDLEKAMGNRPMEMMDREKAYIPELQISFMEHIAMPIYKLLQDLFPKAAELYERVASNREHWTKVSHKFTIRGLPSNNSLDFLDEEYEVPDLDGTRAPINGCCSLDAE
Outline: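 GST-tagged human PDE2A1 expressed in insect cells, run at room temperature for 60 min with 50 nM FAM-cAMP containing 1000 nM cGMP, pH 7.2 Tris/MgCl2 buffer. IMAP fluorescence polarization read after binding step.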

[1] = Rhesus PDE2, Lab A, read-out: Rhesus PDE2 Ki (nM) - Lab A
[2] = Rhesus PDE2, Lab B, read-out: Rhesus PDE2 Ki (nM) - Lab B
[3] = Human PDE2, Lab A, read-out: Human PDE2 Ki (nM) - Lab A
[4] = Human PDE2, Lab B, read-out: Human PDE2 Ki (nM) - Lab B

Sequence of Rhesus PDE2A3 (B3VTJ2 1-941): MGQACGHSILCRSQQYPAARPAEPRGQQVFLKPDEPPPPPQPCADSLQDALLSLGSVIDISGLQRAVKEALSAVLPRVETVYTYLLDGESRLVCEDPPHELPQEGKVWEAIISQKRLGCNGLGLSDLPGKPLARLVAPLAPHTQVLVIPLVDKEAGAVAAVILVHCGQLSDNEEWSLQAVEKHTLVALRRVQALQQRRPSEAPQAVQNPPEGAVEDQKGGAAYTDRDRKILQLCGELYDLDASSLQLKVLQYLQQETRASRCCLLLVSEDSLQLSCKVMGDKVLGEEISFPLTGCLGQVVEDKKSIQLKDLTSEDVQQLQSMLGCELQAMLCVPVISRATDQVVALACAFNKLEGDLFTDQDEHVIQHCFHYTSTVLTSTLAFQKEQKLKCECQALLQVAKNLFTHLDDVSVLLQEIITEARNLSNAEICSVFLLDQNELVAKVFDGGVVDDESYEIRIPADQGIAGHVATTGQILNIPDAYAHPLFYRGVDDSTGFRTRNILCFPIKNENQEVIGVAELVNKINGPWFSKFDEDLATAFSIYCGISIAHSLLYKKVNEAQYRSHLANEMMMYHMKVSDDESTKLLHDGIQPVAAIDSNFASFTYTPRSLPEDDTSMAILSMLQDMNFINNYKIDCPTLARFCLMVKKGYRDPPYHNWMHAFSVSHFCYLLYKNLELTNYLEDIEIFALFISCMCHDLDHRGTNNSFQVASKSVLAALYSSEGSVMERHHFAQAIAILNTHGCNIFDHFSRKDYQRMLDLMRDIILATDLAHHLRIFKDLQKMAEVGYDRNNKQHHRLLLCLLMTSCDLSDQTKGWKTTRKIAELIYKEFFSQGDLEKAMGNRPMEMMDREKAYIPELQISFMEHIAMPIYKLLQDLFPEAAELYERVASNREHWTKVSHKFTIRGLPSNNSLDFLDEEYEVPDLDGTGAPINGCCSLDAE

Row | Compound | Ki (Rhesus PDE2A3; [1]) | Ki (Rhesus PDE2A3; [2]) | Ki (human PDE2A1; [3]) | Ki (human PDE2A1; [4])
1 | Cc1nc(C(=O)NC(C)(C)c2ccc(C(F)(F)F)c(F)c2)cc(=O)[nH]1 [Example 43, N-{1-[3-fluoro-4-(trifluoromethyl)phenyl]-1-methylethyl}-2-methyl-6-oxo-1,6-dihydropyrimidine-4-carboxamide] | 20 nM | 14 nM | 18 nM | 15 nM
2 | C[C@@H](NC(=O)c1cc(=O)[nH]c(-c2ncccn2)n1)c1ccc(C2CC2)cc1 [Example 250, N-[(1R)-1-(4-cyclopropylphenyl)ethyl]-6-oxo-1,6-dihydro-2,2′-bipyrimidine-4-carboxamide] | 5.3 nM | 5.4 nM | – | 6.3 nM
3 | Cc1nc(C(=O)N[C@@H](c2ccc(C(F)(F)F)c(F)c2)C(C)(C)C)cc(=O)[nH]1 [Example 59] | – | 6.4 nM | – | 4.5 nM
4 | O=C(NC1(c2ccc(SC(F)(F)F)c(F)c2)CC1)c1cc(=O)[nH]c(-c2ncccn2)n1 [Example 253, N-(1-{3-fluoro-4-[(trifluoromethyl)sulfanyl]phenyl}cyclopropyl)-6-oxo-1,6-dihydro-2,2′-bipyrimidine-4-carboxamide] | 14 nM | – | 17 nM | –
5 | Cc1nc(C(=O)NC2(c3ccc(C(C)(C)C)cc3)CC2)cc(=O)[nH]1 [Example 623, N-[1-(4-tert-butylphenyl)cyclopropyl]-2-methyl-6-oxo-1,6-dihydropyrimidine-4-carboxamide] | – | 29 nM | – | 31 nM
6 | O=C(NC1(c2ccc(SC(F)(F)F)cc2)CC1)c1cc(=O)[nH]c(-c2ccccc2)n1 [Example 159, 6-oxo-2-phenyl-N-(1-{4-[(trifluoromethyl)sulfanyl]phenyl}cyclopropyl)-1,6-dihydropyrimidine-4-carboxamide] | 7.6 nM | – | 4.9 nM | –
7 | COc1ccc(C(C)(C)c2nc(C(=O)N[C@@H](c3ccc(OC(F)(F)F)c(F)c3)C3CC3)cc(=O)[nH]2)cc1 [Example 498, N-{(R)-cyclopropyl[3-fluoro-4-(trifluoromethoxy)phenyl]methyl}-2-[1-(4-methoxyphenyl)-1-methylethyl]-6-oxo-1,6-dihydropyrimidine-4-carboxamide] | – | 65 nM | – | 49 nM
8 | Cc1nc(C(=O)NC(C)c2ccc(C(C)(C)C)cc2)cc(=O)[nH]1 (single isomer, unassigned) [Example 309, (R)- or (S)-N-[1-(4-tert-butylphenyl)ethyl]-2-methyl-6-oxo-1,6-dihydropyrimidine-4-carboxamide] | 63 nM | – | 43 nM | –
9 | COc1ccc(C(C)(C)c2nc(C(=O)N[C@@H](c3ccc(C(F)(F)F)c(F)c3)C(C)(C)C)cc(=O)[nH]2)cc1 [Example 489, N-{(1R)-1-[3-fluoro-4-(trifluoromethyl)phenyl]-2,2-dimethylpropyl}-2-[1-(4-methoxyphenyl)-1-methylethyl]-6-oxo-1,6-dihydropyrimidine-4-carboxamide] | – | 69 nM | – | 61 nM
10 | O=C(NC(CO)c1ccc(C(F)(F)F)cc1)c1cc(=O)[nH]c(C2CC2)n1 (stereo not drawn) [Example 294, 2-cyclopropyl-N-{2-hydroxy-1-[4-(trifluoromethyl)phenyl]ethyl}-6-oxo-1,6-dihydropyrimidine-4-carboxamide] | 69 nM | – | 46 nM | –
11 | O=C(NC1(c2ccc(SC(F)(F)F)cc2)CC1)c1cc(=O)[nH]c(-c2ncccn2)n1 [Example 77, 6-oxo-N-(1-{4-[(trifluoromethyl)sulfanyl]phenyl}cyclopropyl)-1,6-dihydro-2,2′-bipyrimidine-4-carboxamide] | 19 nM | 14 nM | – | 21 nM
12 | Cc1nc(C(=O)N[C@@H](c2ccc(C(F)(F)F)cc2)C(C)(C)C)cc(=O)[nH]1 [Example 249, N-{(1R)-2,2-dimethyl-1-[4-(trifluoromethyl)phenyl]propyl}-2-methyl-6-oxo-1,6-dihydropyrimidine-4-carboxamide] | 2 nM | 4.3 nM | – | 4.1 nM
13 | O=C(N[C@@H](c1ccc(OC(F)F)cc1)C1CC1)c1cc(=O)[nH]c(C2CC2)n1 [Example 446, 2-cyclopropyl-N-{(R)-cyclopropyl[4-(difluoromethoxy)phenyl]methyl}-6-oxo-1,6-dihydropyrimidine-4-carboxamide] | – | 43 nM | – | 42 nM
14 | C[C@@H](NC(=O)c1cc(=O)[nH]c(C2CC2)n1)c1ccc(C(F)(F)F)c(F)c1 [Example 234, 2-cyclopropyl-N-{(1R)-1-[3-fluoro-4-(trifluoromethyl)phenyl]ethyl}-6-oxo-1,6-dihydropyrimidine-4-carboxamide] | 20 nM | – | 18 nM | –
15 | Cc1nc(C(=O)N[C@H](C)c2ccc(-c3ccc(F)cc3)cc2)cc(=O)[nH]1 [Example 322, N-[(1R)-1-(4′-fluorobiphenyl-4-yl)ethyl]-2-methyl-6-oxo-1,6-dihydropyrimidine-4-carboxamide] | 205 nM | – | 171 nM | –
16 | CC[C@@H](NC(=O)c1cc(=O)[nH]c(-c2ccccc2)n1)c1ccc(SC(F)(F)F)c(F)c1 [Example 385, N-[(1R)-1-{3-fluoro-4-[(trifluoromethyl)sulfanyl]phenyl}pro-pyl]-6-oxo-2-phenyl-1,6-dihydropyrimidine-4-carboxamide] | – | 7 nM | – | 4.4 nM
17 | Cc1nc(C(=O)N[C@@H](c2ccc(OC(F)F)cc2)C(C)C)cc(=O)[nH]1 [Example 611, N-{(1R)-1-[4-(difluoromethoxy)phenyl]-2-methylpropyl}-2-methyl-6-oxo-1,6-dihydropyrimidine-4-carboxamide] | – | 44 nM | – | 37 nM
18 | CC(NC(=O)c1cc(=O)[nH]c(-c2ccccc2)n1)c1ccc2c(c1)OCCO2 (stereo not drawn) [Example 360, N-[1-(2,3-dihydro-1,4-benzodioxin-6-yl)ethyl]-6-oxo-2-phenyl-1,6-dihydropyrimidine-4-carboxamide] | 222 nM | 459 nM | – | ~488 nM
19 | COc1ccc(C(C)(C)c2nc(C(=O)N[C@@H](c3ccc(OC(F)(F)F)cc3)C3CC3)cc(=O)[nH]2)cc1 [Example 501, N-{(R)-cyclopropyl[4-(trifluoromethoxy)phenyl]methyl}-2-[1-(4-methoxyphenyl)-1-methylethyl]-6-oxo-1,6-dihydropyrimidine-4-carboxamide] | – | 77 nM | – | 64 nM

More lines, in order of falling Ki (Rhesus PDE2A3; [2]), values ahead:

Row | Ki (Rhesus PDE2A3; [1]) | Ki (Rhesus PDE2A3; [2]) | Ki (human PDE2A1; [3]) | Ki (human PDE2A1; [4]) | Compound
20 | 0.99 nM | 2.4 nM | – | 3 nM | CC(C)[C@@H](NC(=O)c1cc(=O)[nH]c(C2CC2)n1)c1ccc(SC(F)(F)F)c(F)c1 [Example 244, 2-cyclopropyl-N-[(1R)-1-{3-fluoro-4-[(trifluoromethyl)sulfanyl]phenyl}-2-methylpropyl]-6-oxo-1,6-dihydropyrimidine-4-carboxamide]
21 | – | 1.9 nM | – | 2 nM | COc1ccc(Cc2nc(C(=O)N[C@@H](c3ccc(SC(F)(F)F)cc3)C3CC3)cc(=O)[nH]2)cc1 [Example 479, N-[(R)-cyclopropyl{4-[(trifluoromethyl)sulfanyl]phenyl}methyl]-2-(4-methoxybenzyl)-6-oxo-1,6-dihydropyrimidine-4-carboxamide]
22 | – | 1.5 nM | – | 1.7 nM | CC[C@@H](NC(=O)c1cc(=O)[nH]c(Cc2ccc(OC)cc2)n1)c1ccc(SC(F)(F)F)c(F)c1 [Example 477, N-[(1R)-1-{3-fluoro-4-[(trifluoromethyl)sulfanyl]phenyl}propyl]-2-(4-methoxybenzyl)-6-oxo-1,6-dihydropyrimidine-4-carboxamide]
23 | – | 1.5 nM | – | 1.5 nM | COc1ccc(Cc2nc(C(=O)N[C@@H](c3ccc(S(F)(F)(F)(F)F)cc3)C(C)C)cc(=O)[nH]2)cc1 [Example 471, 2-(4-methoxybenzyl)-N-[(1R)-2-methyl-1-[4-(pentafluoro-λ^6-sulfanyl)phenyl]propyl}-6-oxo-1,6-dihydropyrimidine-4-carboxamide]
24 | – | 1.4 nM | – | 1.5 nM | CC(C)(C)[C@@H](NC(=O)c1cc(=O)[nH]c(-c2ccccc2)n1)c1ccc(OC(F)(F)F)cc1 [Example 462, N-{(1R)-2,2-dimethyl-1-[4-(trifluoromethoxy)phenyl]propyl}-6-oxo-2-phenyl-1,6-dihydropyrimidine-4-carboxamide]
25 | – | 1.3 nM | – | 1.3 nM | COc1ccc(Cc2nc(C(=O)N[C@@H](c3ccc(OC(F)(F)F)cc3)C(C)C)cc(=O)[nH]2)cc1 [Example 475, 2-(4-methoxybenzyl)-N-{(1R)-2-methyl-1-[4-(trifluoromethoxy)phenyl]propyl}-6-oxo-1,6-dihydropyrimidine-4-carboxamide]
26 | – | 1.3 nM | – | 1.4 nM | CC(C)(C)[C@@H](NC(=O)c1cc(=O)[nH]c(C2CC2)n1)c1ccc(C2CC2)cc1 [Example 447, 2-cyclopropyl-N-[(1R)-1-(4-cyclopropylphenyl)-2,2-dimethylpropyl]-6-oxo-1,6-dihydropyrimidine-4-carboxamide]
27 | – | 1.1 nM | – | 0.86 nM | COc1ccc(Cc2nc(C(=O)N[C@@H](c3ccc(OC(F)(F)F)c(F)c3)C(C)C)cc(=O)[nH]2)cc1 [Example 473, N-{(1R)-1-[3-fluoro-4-(trifluoromethoxy)phenyl]-2-methylpropyl}-2-(4-methoxybenzyl)-6-oxo-1,6-dihydropyrimidine-4-carboxamide]
28 | – | 0.85 nM | – | 0.79 nM | COc1ccc(Cc2nc(C(=O)N[C@@H](c3ccc(C(F)(F)F)c(F)c3)C(C)(C)C)cc(=O)[nH]2)cc1 [Example 466, N-{(1R)-1-[3-fluoro-4-(trifluoromethyl)phenyl]-2,2-dimethylpropyl}-2-(4-methoxybenzyl)-6-oxo-1,6-dihydropyrimidine-4-carboxamide]
